{"source": "patent US11033604B2", "about": "“Reagents and methods for treating bacterial infection” (priority 2018, dated 2021)", "key": {"[1]": {"system": "S. aureus MN8 biofilms", "test": "ThT fluorescence assay of amyloid formation in S. aureus MN8 biofilm cultures", "assay_type": "cell-based, Staphylococcus aureus", "conditions": "MN8 and SH1000 WT strains, particularly MN8; 24 h, 37° C.", "description": "We developed a novel protocol to identify amyloid fibril formation during biofilm development in two S. aureus strains—SH1000 WT, a rsbU^+ laboratory strain^27, and MN8, a clinical strain isolated from the human urogenital tract (Table 1). After 24 hours of batch growth in microtiter plates, biofilms were washed and incubated with Thioflavin T (ThT), and the resulting fluorescence signals served as a proxy for the extent of PSM fibril formation in the EM (FIG. 1A). Next, we utilized this assay to test α-sheet amyloid inhibitor designs and control peptides (sequences provided in Table 2) in batch biofilm cultures. The first inhibitor used is AP90 (Alternating Peptide #90, referred to as α1 previously^25,26). […] The AP401 and AP407 designs display similar spectral features by CD, except that AP401 has a positive signal in the random coil region (FIG. 7). AP401 has the same sequence as AP90 but with reversed chirality in the strands and turn, thus the D-amino acids give rise to an approximate mirror image CD spectrum relative to AP90. AP407 is a variant of AP90 with a disulfide bond. An unstructured random coil peptide (RC) and a β-hairpin (β) are used as structural controls.\nDesigned and control peptides were added to the growth medium prior to inoculation, and biofilms were allowed to grow for 24 hours at 37° C. Planktonic cells were removed and the remaining biofilms were assayed for amyloid content using ThT. […] The disulfide-linked peptide design, AP407, reduced the amyloid fibril formation by 46% and 56% in the MN8 and SH1000 WT strains, respectively. In contrast, the random coil and β-sheet control peptides were ineffective.\nOvernight cultures of S. aureus (see Table 1 for a list of strains used in this study) were spun down and re-suspended in fresh Luria-Bertani (LB) media to an optical density of 0.1 (600 nm). These cultures were then mixed with reconstituted peptide (or water, in the case of controls) and aliquoted in quadruplicate into wells of a clear 48-well plate (Corning, TC-treated polystyrene). The final concentration of peptide in each well was 80 μM, unless otherwise noted. Plates were covered and biofilms were grown at 37° C. for 24 hours with gentle rocking. At this time, medium and planktonic cells were removed from wells using a vacuum and the remaining adherent biofilms were rinsed once with PBS (BupH™, Thermo Scientific). Thioflavin T (ThT), an established fluorescent label for amyloid fibrils^40, was then added to each well at a concentration of 22 μM and biofilms were incubated statically for 4 hours at room temperature. The solution was then removed from the wells and PBS was added with vigorous pipetting to detach biofilms from the plate surface. Plates were shaken at high speed for 1 minute on a plate shaker to detach any remaining biofilm material and homogenize the samples. The detached biofilm suspensions were transferred to a 96-well black-walled plate (Corning, TC-treated polystyrene) and ThT fluorescence was read at 438/495 nm on a Perkin-Elmer Enspire™ plate reader. Fluorescence measurements were corrected by subtracting the background intensity of identical samples without ThT. For calculation of live:dead cell ratios, biofilm suspensions were prepared as described above and cells were stained with a 1:1 mixture of Syto9 and propidium iodide (LIVE/DEAD BacLight™ Bacterial Viability Kit, Thermo Scientific). After 15 minutes of incubation at room temperature, fluorescence ratios of the two dyes were determined using a Perkin-Elmer Enspire™ plate reader."}, "[2]": {"system": "synthetic PSMα1", "test": "PSMα1 fibrillization assay with added inhibitors (ThT)", "assay_type": "biochemical, Staphylococcus aureus", "description": "FIG. 5. Aggregation of synthetic PSMα1 is inhibited by designed α-sheet peptides. (A) Synthetic PSMα1 peptide (30 μM, <1% DMSO, pH 5.5) was allowed to aggregate alone and in the presence of AP90 (1:4 molar ratio), RC (1:4 molar ratio), or AP407 (1:3 molar ratio). Two different solvent conditions were used (water+<1% DMSO; LB medium+<1% DMSO) and aggregation was monitored by ThT fluorescence. Inhibition values for each peptide are reported as a percentage of the peptide-free control samples (0% inhibition). (B) ThT fluorescence curves monitored the aggregation kinetics of PSMα1 under two different solvent conditions (water+<1% DMSO, black circles; LB medium+<1% DMSO, white circles). Fluorescence values in (B) are averages of 3-6 samples, with error bars to represent the standard deviation of the mean.\nDesigned α-sheet peptides inhibit amyloid formation through selective binding After establishing the structural transitions required to form amyloid in PSMα1, we examined the effect of the designed α-sheet peptides on the aggregation of PSMα1 in vitro. The designed peptide inhibitors were co-incubated with freshly prepared samples of synthetic PSMα1 (30 μM) and aggregation was monitored by ThT, as described above. To ensure sample homogeneity and removal of any amyloid “seeds” prior to aggregation, the synthetic PSMα1 peptide was treated with DMSO and then diluted into filtered water. […]"}, "[3]": {"system": "Escherichia coli (EC)", "test": "Crystal violet biofilm assay", "assay_type": "cell-based", "text": "(§1) Furthermore, these same inhibitors are active against EC, SE, and SM."}, "[4]": {"system": "Streptococcus mutans (SM)", "test": "Crystal violet biofilm assay", "assay_type": "cell-based", "text": "as §1"}, "[5]": {"system": "Pseudomonas aeruginosa (PA)", "test": "Crystal violet biofilm assay", "assay_type": "cell-based", "text": "as §1"}, "[6]": {"system": "Staphylococcus epidermidis (SE)", "test": "Crystal violet biofilm assay", "assay_type": "cell-based", "text": "as §1"}, "[7]": {"system": "P. aeruginosa PAO1 pFap biofilms", "test": "In situ ThT assay of Fap amyloid in P. aeruginosa biofilms", "assay_type": "cell-based", "conditions": "LB medium, 37° C., 48 h", "text": "FIG. 15. Action of synthetic α-sheet peptides in the P. aeruginosa system. […] Error bars indicate standard deviation of the mean of at least three replicates. Significance values are p<0.05: *, p<0.01: **, p<0.001: ***.\nThe strain used in these experiments is a fap-overexpressing mutant of P. aeruginosa PAO1 WT called PAO1 pFap. The overexpression is generated by cloning the entire fap operon into a host expression vector, which is then transformed into PAO1 WT. […] For in situ assays, overnight cultures from a single colony of freshly transformed PAO1 pFap were used to inoculate 96 well plates in the presence of synthetic α-sheet peptides in LB medium. As a control, biofilms of the deletion strain PAO1 Δfap were grown under the same conditions. Plates were covered and incubated at 37° C. for 48 h. After incubation, planktonic cells and media were gently removed from the biofilms by pipetting. The biofilms were rinsed once with PBS prior to staining with 20 μM ThT. Stained biofilms were resuspended by pipetting and sonication, and the fluorescence of ThT was measured at 448/485 nm in a plate reader."}, "[8]": {"system": "SA", "test": "Crystal violet biofilm assay", "assay_type": "cell-based, Staphylococcus aureus", "text": "as §1"}}, "note": "Non-standard residues stand in square brackets, D forms with d. No end group written: not given here.", "data": [{"substance": "KLKpLLTSENTL (KLK[dP]LLTSENTL) [RC, unstructured random coil peptide used as structural control]", "values": [{"measurement": "Effect on amyloid fibril formation in S. aureus biofilms (ThT fluorescence, FIG. 1B)", "setting": "[1]", "value": "ineffective"}, {"measurement": "Inhibition of PSMα1 fibril formation", "setting": "[2]; 30 μM PSMα1, LB medium + <1% DMSO, 1:4 molar ratio", "value": "did not significantly influence amyloid formation"}, {"measurement": "Inhibition of PSMα1 amyloid formation", "setting": "[2]; 30 μM PSMα1, water + <1% DMSO, 1:4 molar ratio (excess peptide)", "value": "little effect"}]}, {"substance": "RGNwNeSkMNEYSGWmLmLtMGR (RGN[dW]N[dE]S[dK]MNEYSGW[dM]L[dM]L[dT]MGR) [AP5]", "values": [{"measurement": "Activity against biofilm-forming bacteria (crystal violet)", "setting": "[3]", "value": "active"}, {"measurement": "Activity against biofilm-forming bacteria (crystal violet)", "setting": "[4]", "value": "active"}, {"measurement": "Biofilm inhibition (crystal violet, FIG. 10)", "setting": "[5]", "value": "inhibition"}, {"measurement": "Activity against biofilm-forming bacteria (crystal violet)", "setting": "[6]", "value": "active"}, {"measurement": "Amyloid formation in biofilms (ThT)", "setting": "[7]", "value": "significantly inhibit amyloid formation"}, {"measurement": "Biofilm inhibition (crystal violet, FIG. 10)", "setting": "[8]", "value": "inhibition"}]}, {"substance": "SWTWEpNKWTWK (H-SWTWE[dP]NKWTWK-NH2; SMILES C[C@@H](O)[C@H](NC(=O)[C@H](Cc1c[nH]c2ccccc12)NC(=O)[C@H](CCCCN)NC(=O)[C@H](CC(N)=O)NC(=O)[C@H]1CCCN1C(=O)[C@H](CCC(=O)O)NC(=O)[C@H](Cc1c[nH]c2ccccc12)NC(=O)[C@@H](NC(=O)[C@H](Cc1c[nH]c2ccccc12)NC(=O)[C@@H](N)CO)[C@@H](C)O)C(=O)N[C@@H](Cc1c[nH]c2ccccc12)C(=O)N[C@@H](CCCCN)C(N)=O) [β, β-hairpin structural control peptide, reference compound]", "values": [{"measurement": "Effect on amyloid fibril formation in S. aureus biofilms (ThT fluorescence, FIG. 1B)", "setting": "[1]", "value": "ineffective"}]}, {"substance": "rGeMnLsWmneysGwTmNlKmGr (Ac-[dR]G[dE]M[dN]L[dS]W[dM][dN][dE][dY][dS]G[dW]T[dM]N[dL]K[dM]G[dR]-NH2; SMILES CSCC[C@H](NC(=O)[C@@H](CCC(=O)O)NC(=O)CNC(=O)[C@@H](CCCNC(=N)N)NC(C)=O)C(=O)N[C@H](CC(N)=O)C(=O)N[C@@H](CC(C)C)C(=O)N[C@H](CO)C(=O)N[C@@H](Cc1c[nH]c2ccccc12)C(=O)N[C@H](CCSC)C(=O)N[C@H](CC(N)=O)C(=O)N[C@H](CCC(=O)O)C(=O)N[C@H](Cc1ccc(O)cc1)C(=O)N[C@H](CO)C(=O)NCC(=O)N[C@H](Cc1c[nH]c2ccccc12)C(=O)N[C@H](C(=O)N[C@H](CCSC)C(=O)N[C@@H](CC(N)=O)C(=O)N[C@H](CC(C)C)C(=O)N[C@@H](CCCCN)C(=O)N[C@H](CCSC)C(=O)NCC(=O)N[C@H](CCCNC(=N)N)C(N)=O)[C@@H](C)O) [AP401]", "values": [{"measurement": "Effect on amyloid fibril formation in S. aureus biofilms (ThT fluorescence, FIG. 1B)", "setting": "[1]", "value": "significant reduction in amyloid fibril formation"}]}]}
